Reference: patent US9545400B2, “Analgesic composition including opioid analgesic and P7C3” (CHONNAM NATIONAL UNIVERSITY HOSPITAL, priority 2014, dated 2017)

Assays:
[1] = system: Sprague-Dawley rats; assay: Formalin-induced pain test (flinching) after intrathecal administration; format: in vivo, rat; conditions: for ED50 (dose which decreases the formalin response of the control by 50%), Phase 1 / ED50 (dose which decreases the formalin response of the control by 50%), Phase 2: drug alone, intrathecal 10 min before formalin injection, rat; for ED50 (dose which decreases the formalin response of the control by 50%), Phase 1: Phase 1 (0 to 9 min); for ED50 (dose which decreases the formalin response of the control by 50%), Phase 2: Phase 2 (10 to 60 min); for Ratio of ED50 in Phase 1 to ED50 in Phase 2: formalin experiment; for Ratio of ED50 in Phase 1 to ED50 in Phase 2 / Flinching reactions, dose-response (percentage of control) / Number of flinches over time at the highest dose: intrathecal; for Flinching reactions, dose-response (percentage of control): Phase 1 and Phase 2, FIGS. 2A and 2B; for Number of flinches over time at the highest dose: FIGS. 1A and 1B
Protocol: (§1) After permission for all the procedures in the experimental protocol was obtained by The Institutional Animal Care and Use Committee of Chonnam National University, experiments were performed. Adult male Sprague-Dawley rats (250 to 300 g) were used as the experimental subject, four rats per group were housed and kept in a well-controlled vivarium, maintained at 22° C. for 12 hours, with an alternating light/dark cycle and were given food and water ad libitum. Rats were under sevoflurance anesthesia in order to be implanted with an intrathecal catheter, and placed in a stereotaxic apparatus A polyethylene catheter lower end portion was intrathecally inserted so as to be positioned within the lumbar extension portion through an incision in the cisternal membrane. Then, the catheter upper end portion was secured at the skull. After the catheter implantation, rats were again housed in individual cages. After the intrathecal catheter implantation, rats showing movement disorder were excluded in the experiment, and killed by administering an overdose of sevoflurane. Rats showing normal responses were again housed in individual cages in the vivarium, and given a recovery time of 5 days.
A formalin experiment was used as a pain evoking experimental tool. 50 μL of a 5% formalin solution was injected subcutaneously into the subcutaneous tissue of a hind paw of the rat. […] The number of flinches was counted for 1 min periods at 1 and 5 min and at 5 min intervals from 10 to 60 min after the injection. […] Therefore, the phase from 0 to 9 minutes after the injection of formalin was defined as Phase 1, and the phase from 10 to 60 minutes was defined as Phase 2. After the behavior study, rats were administered an overdose of sevoflurane, and then killed.
The effect of the experimental drug for the formalin injection was tested for 5 days after the intrathecal catheter implantation. After acclimatization for 15 to 20 min in a restraint cylinder (10×10×30 cm), the rats were allocated to receive one of the experimental drugs, and tested only once. The same volume of the vehicle (saline, 0.1 N NaOH or DMSO) was administered to a control. The total number of rats used in the nociceptive behavioral study was 139 with 6 to 8 rats per group. The investigators were blind as to the administration amount and type of experimental drug used in each rat.
Saline, 10, 30, and 100 μg of P7C3 (Tocris Cookson Ltd., Bristol, UK), and 1, 3, 10, and 30 μg of morphine sulfate (Sigma-Aldrich, St. Louis, Mo., USA) were intrathecally administered 10 minutes before formalin injection, and analgesic effects (flinching number analysis) were investigated according to the aforementioned pain experiment. The drug was intrathecally administered by using a manually gear operated syringe pump. All the drugs were administered in an amount of 10 μl, and an additional 10 μl of standard saline was administered in order to wash out the catheter.
The dose (ED50), which decreases the formalin response of the control for P7C3 and morphine by 50%, was determined at Phase 1 and the Phase 2, respectively.
And then, ED50 of the mixed drug was obtained. The experiment was performed individually in Phase 1 and Phase 2.
Data obtained in Examples 1 and 2 were expressed as means±SEM. The time response data are presented as the number of flinches. The dose-response data are presented as a percentage of the control. Percentage of the control=(total number of flinches in drug administration group in Phase 1[2]/number of flinches of control in Phase 1[2])×100

[2] = system: Sprague-Dawley rats; assay: Evaluation of response of intrathecal administration of P7C3 (motor function and pinna/corneal reflexes); format: in vivo, rat; conditions: highest dose (100 μg) intrathecal, 5 rats
Protocol: as §1, with “After the intrathecal catheter implantation, rats showing movement disorder were excluded in the experiment, and killed by administering an overdose of sevoflurane. Rats showing normal responses were again housed in individual cages in the vivarium, and given a recovery time of 5 days.” left out
In order to detect undesirable behaviors induced by P7C3, the highest dose (100 μg) was intrathecally administered to 5 rats of each individual group. Motor function was assessed by the placing-stepping reflex and the righting reflex. […] The latter was evaluated by placing the rat horizontally with the rat's back on the table. […] The central nervous system was evaluated through pinna and corneal reflexes. […]

**Q.** What does the source list for CN1CC[C@]23c4c5ccc(O)c4O[C@H]2[C@@H](O)C=C[C@H]3[C@H]1C5 [Morphine, (5α,6α)-7,8-didehydro-4,5-epoxy-17-methylmorphinan-3,6-diol, reference compound]?
**A.** ED50 (dose which decreases the formalin response of the control by 50%), Phase 1 [1]: 8.8 µg; ED50 (dose which decreases the formalin response of the control by 50%), Phase 2 [1]: 3.9 µg; Ratio of ED50 in Phase 1 to ED50 in Phase 2 [1]: two times larger; Flinching reactions, dose-response (percentage of control) [1]: suppressed flinching reactions dose-dependently; Number of flinches over time at the highest dose [1]: exhibited potential analgesic effects throughout the entire observation period

**Q.** For OC(CNc1ccccc1)Cn1c2ccc(Br)cc2c2cc(Br)ccc21 (centres unmarked) [P7C3, 1-(3,6-dibromo-9H-carbazol-9-yl)-3-(phenylamino)propan-2-ol], which “ED50 (dose which decreases the formalin response of the control by 50%), Phase 1” value [1] is on record?
**A.** 31.8 µg

**Q.** What about the “ED50 (dose which decreases the formalin response of the control by 50%), Phase 2” value [1] of the same compound?
**A.** 31 µg

**Q.** What about the “Ratio of ED50 in Phase 1 to ED50 in Phase 2” value [1] of the same compound?
**A.** similar

**Q.** What about the “Flinching reactions, dose-response (percentage of control)” value [1] of the same compound?
**A.** suppressed flinching reactions dose-dependently

**Q.** What about the “Number of flinches over time at the highest dose” value [1] of the same compound?
**A.** exhibited potential analgesic effects throughout the entire observation period

**Q.** And the “Normality of behavior: placing-stepping, righting, pinna and corneal reflexes” value [2]?
**A.** all normal (present)
